Reference: patent US20230118435A1, “COMPOSITION COMPRISING AN AVENANTHRAMIDE WITH IMPROVED SKIN PENETRATION” (priority 2020, published 2023)

Assay: Skin PAMPA (Parallel Artificial Membrane Permeability Assay) permeation from a cosmetic formulation
Format: in vitro ADME
Conditions: for Mean amount per ml acceptor liquid: 0.05% in formulation, no penetration enhancer; for Modulation (%) of penetration / increase of permeation / Modulation (%) of penetration: 3% 1,2-pentanediol (Hydrolite-5); for Penetration behaviour compared with DhAvn D: absence of a penetration enhancer, FIG. 1
Description: The permeation of Avn A from a cosmetic formulation across a stratum corneum-mimicking artificial membrane was evaluated using the Skin PAMPA™ (Parallel Artificial Membrane Permeability Assay) model.
The primary penetration barrier of the skin, the stratum corneum (SC), consists of corneocytes embedded in extracellular lipids. The lipid mixture of the Skin PAMPA™ membrane consists of similar quantities of certramides (synthetic ceramide analogues), stearic acid and cholesterol as the SC. The Skin PAMPA™ sandwich consists of two 96-well plates, wherein one plate is formed so as to sit precisely under the plate that contains a porous lipid-impregnated filter. The wells of the bottom plate were filled with formulation, and the wells of the top plate were filled with acceptor solution. The plates were then stacked and incubated. The Skin PAMPA™ model has been used to evaluate semi-solid formulations and found to correlate well with ex vivo permeation studies.
(§1) Heat Phase A and B separately to 70° C.; disperse Phase C in B; add Phase BC to Phase A and emulsify using an ULTRA TURRAX® stirrer (2 minutes); allow to cool by using a vane stirrer; add Phase D for neutralising. The formulation was prepared in bulk. The active substances were pre-dissolved in the corresponding additives and were added to the formulation (15 minutes stirring with a vane stirrer).
180 ml of buffer was mixed with 20 ml ethanol (buffer: 20 mmol/l citric acid, pH 5.5); 0.84 g of anhydrous citric acid was dissolved in approximately 180 g of water; the pH was adjusted to 5.5 using a 30% sodium hydroxide solution; following pH adjustment, the solution was filled up with water to 200 g.
After 240 minutes, approximately 180 μl of each Skin PAMPA™ sample was transferred into an HPLC micro-vial.
Equipment: an Agilent HP 1100 connected to a Waters Empower 3 SR3
Column: a Waters XBridge® C18, 3.5 μm, 3.0×50 mm
Column temperature: 30° C. Mobile phase A: water+0.1% formic acid Mobile phase B: methanol Flow: 1.02 ml/min Injection volume: 25 μl
The permeation of Avn L from a cosmetic formulation across a stratum corneum-mimicking artificial membrane was evaluated as described above using the Skin PAMPA™ (Parallel Artificial Membrane Permeability Assay) model.
The permeation of Avn B from a cosmetic formulation across a stratum corneum-mimicking artificial membrane was evaluated as described above using the Skin PAMPA™ (Parallel Artificial Membrane Permeability Assay) model.
Unlike Examples 1 and 2, acceptor solution samples for HPLC analysis of each Skin PAMPA™ sample were this time taken after just 120 minutes.
(§2) The skin permeation of Avn A, Avn B, Avn C and Avn L in comparison to dihydroavenanthramide D (DhAvn D) from a cosmetic formulation across a stratum corneum-mimicking artificial membrane was evaluated as described above using the Skin PAMPA™ (Parallel Artificial Membrane Permeability Assay) model.
as §1, with “glycerine or water or mixtures thereof” for “the corresponding additives”
After 60, 120 and 240 minutes, approximately 180 μl of each Skin PAMPA™ sample was transferred into an HPLC micro-vial and analysed by HPLC.
as §2, with “The” for “The skin”, “of” for “of Avn A, Avn B, Avn C and”, “formulation in the presence of 3% 1,2-pentanediol” for “formulation”

| SMILES | Mean amount per ml acceptor liquid (0 min) [μg per ml] | Mean amount per ml acceptor liquid (60 min) [μg per ml] | Mean amount per ml acceptor liquid (120 min) [μg per ml] | Mean amount per ml acceptor liquid (240 min) [μg per ml] | Increase of permeation (2% Hydrolite-6 (1,2-hexanediol), 240 min) [%] | Modulation (%) of penetration / increase of permeation (240 min) [%] | Increase of permeation (5% Hydrolite-5 (1,2-pentanediol), 240 min) [%] | Penetration behaviour compared with DhAvn D | Increase of permeation (1% Hydrolite-6 (1,2-hexanediol), Example 3, samples taken after 120 minutes) [%] | Increase of permeation (1% SymDiol 68 (1:1 1,2-hexanediol and 1,2-octanediol), Example 3, samples taken after 120 minutes) [%] | Increase of permeation (2% Hydrolite-6 (1,2-hexanediol), Example 3, samples taken after 120 minutes) [%] | Increase of permeation (1% Hydrolite-6 (1,2-hexanediol), 240 min) [%] | Modulation (%) of penetration (60 min) [%] | Modulation (%) of penetration (120 min) [%] |
| --- | --- | --- | --- | --- | --- | --- | --- | --- | --- | --- | --- | --- | --- | --- |
| O=C(C=Cc1ccc(O)cc1)Nc1ccc(O)cc1C(=O)O [Avn A, N-(4′-hydroxycinnamoyl)-5-hydroxyanthranilic acid] | 0 | 0.069 | 0.188 | 0.319 | 46 | 19 | 59 | weaker penetration behaviour than dehydroavenanthramide D (DhAvn D) |  |  |  |  |  |  |
| COc1cc(C=CC(=O)Nc2ccc(O)cc2C(=O)O)ccc1O [Avn B, N-(4′-hydroxy-3′-methoxycinnamoyl)-5-hydroxyanthranilic acid] | 0 | 0.038 | 0.063 | 0.154 |  |  |  | weaker penetration behaviour than dehydroavenanthramide D (DhAvn D) | 62 | 87 | 76 |  |  |  |
| O=C(C=Cc1ccc(O)c(O)c1)Nc1ccc(O)cc1C(=O)O [Avn C, N-(3′-4′-dihydroxycinnamoyl)-5-hydroxyanthranilic acid] | 0 | 0.321 | 0.532 | 1.098 |  |  |  | penetrates better than dehydroavenanthramide D (DhAvn D) |  |  |  |  |  |  |
| O=C(/C=C/C=C/c1ccc(O)cc1)Nc1ccc(O)cc1C(=O)O [Avn L] | 0 | 0 | 0.000 | 0.030 |  | 125 |  | weaker penetration behaviour than dehydroavenanthramide D (DhAvn D) |  |  |  | 160 |  |  |
| O=C(CCc1ccc(O)cc1)Nc1ccccc1C(=O)O [Dihydroavenanthramide D, 2-(3-(4-hydroxyphenyl-)propanoyl-)amidobenzoic acid, reference compound] | 0.000 | 0.225 | 0.288 | 0.750 |  | 57 |  |  |  |  |  |  | −2 | 58 |
